Results as given in patent publication US12037363B2, “Peptides for Covid-19 prevention and treatment” (SOTIRA COVID, LLC, priority 2020, dated 2024).

Columns and labels:
[1] = target: T1, ACE-2 (Homo sapiens, UniProt Q9BYF1); assay: fluorescence polarization (FP) assay; format: binding; details: FITC tag at C-terminal end (FIG. 3C)
[2] = target: T2, interaction between S-glycoprotein and ACE-2 protein (Homo sapiens, UniProt Q9BYF1); assay: kit-based luminometric inhibitor screen assay; format: biochemical, SARS-CoV2
T2 construct: purchased
T2 sequence (Q9BYF1 18-740): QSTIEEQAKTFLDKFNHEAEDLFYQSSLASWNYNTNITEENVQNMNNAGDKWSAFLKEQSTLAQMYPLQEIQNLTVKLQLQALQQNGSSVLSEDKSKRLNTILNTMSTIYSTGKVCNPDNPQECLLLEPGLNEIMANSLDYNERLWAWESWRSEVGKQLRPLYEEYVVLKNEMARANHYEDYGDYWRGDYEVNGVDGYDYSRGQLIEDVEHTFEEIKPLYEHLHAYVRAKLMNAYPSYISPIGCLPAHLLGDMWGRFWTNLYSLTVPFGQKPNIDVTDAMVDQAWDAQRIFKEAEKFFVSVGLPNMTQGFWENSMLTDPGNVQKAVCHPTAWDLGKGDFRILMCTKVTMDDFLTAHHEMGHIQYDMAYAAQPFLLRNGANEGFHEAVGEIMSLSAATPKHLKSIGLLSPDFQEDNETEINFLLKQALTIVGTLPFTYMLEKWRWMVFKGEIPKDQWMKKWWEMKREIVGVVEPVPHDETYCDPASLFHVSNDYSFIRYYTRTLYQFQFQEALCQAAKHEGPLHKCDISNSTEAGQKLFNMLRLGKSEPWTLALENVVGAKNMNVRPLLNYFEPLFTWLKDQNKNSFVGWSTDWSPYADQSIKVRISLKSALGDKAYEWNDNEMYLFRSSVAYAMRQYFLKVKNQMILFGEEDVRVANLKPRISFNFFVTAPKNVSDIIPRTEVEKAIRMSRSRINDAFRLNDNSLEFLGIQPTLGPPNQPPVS
Excerpt: A kit-based luminometric inhibitor screen assay was used to evaluate the efficacy of the biotinylated and FITC labeled ACIS in inhibiting the interaction between S-glycoprotein and ACE-2 protein.

[3] = system: SARS-CoV2 in VERO E6 cells; assay: SARS-CoV2 plaque assay in VERO E6 cells; format: cell-based; details: 25 μM pre-incubation 30 mins; compared to control; KEPTIDE1 at 1:20 dilution dose
[4] = target: full-length ACE-2 protein (Homo sapiens, UniProt Q9BYF1); assay: BLItz label-free bio-layer interferometry assay; format: binding
Sequence of full-length ACE-2 protein (Q9BYF1 18-805): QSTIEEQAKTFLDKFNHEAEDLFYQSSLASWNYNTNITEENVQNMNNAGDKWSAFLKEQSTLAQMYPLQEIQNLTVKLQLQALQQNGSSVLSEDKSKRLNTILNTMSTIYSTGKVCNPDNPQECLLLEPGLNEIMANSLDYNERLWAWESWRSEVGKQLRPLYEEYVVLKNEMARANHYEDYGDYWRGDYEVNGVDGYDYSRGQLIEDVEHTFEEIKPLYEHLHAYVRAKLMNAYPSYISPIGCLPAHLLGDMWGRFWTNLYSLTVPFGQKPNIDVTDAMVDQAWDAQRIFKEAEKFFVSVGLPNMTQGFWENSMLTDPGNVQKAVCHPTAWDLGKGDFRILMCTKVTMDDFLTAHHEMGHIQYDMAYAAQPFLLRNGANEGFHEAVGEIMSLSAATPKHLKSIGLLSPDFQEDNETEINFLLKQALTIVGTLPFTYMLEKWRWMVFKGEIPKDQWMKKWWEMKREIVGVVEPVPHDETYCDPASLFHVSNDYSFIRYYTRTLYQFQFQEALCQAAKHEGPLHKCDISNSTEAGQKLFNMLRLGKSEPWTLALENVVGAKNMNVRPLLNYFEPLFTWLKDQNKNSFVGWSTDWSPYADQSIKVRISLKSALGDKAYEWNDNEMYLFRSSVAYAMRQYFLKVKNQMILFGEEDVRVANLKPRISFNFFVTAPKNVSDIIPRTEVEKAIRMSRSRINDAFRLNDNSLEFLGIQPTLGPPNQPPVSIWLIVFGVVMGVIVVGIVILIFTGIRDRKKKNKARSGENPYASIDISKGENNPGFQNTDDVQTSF
Description: The ACIS peptide is specifically designed from the part of S-glycoprotein that is conserved only in the coronaviral family. Because of this specificity there is no possibility of any off-target effect. […] Blitz assay was used to confirm the specificity of ACIS peptide towards ACE-2 protein.
The experiment was performed based on manufacturer's instructions. Briefly, biotinylated ACIS peptide was bound to the BLItz streptavidin-linked biosensor. Different doses of ACE-2 enzyme were then charged to the ACIS peptide and then washed.
To further characterize the binding between ACIS and ACE-2, BLItz label-free bio-layer interferometry assay was performed. ACIS (0.25 μg/μL) was loaded to the sensor and titrated with different concentration of ACE-2 protein starting with the concentration as low as 10 nM. […] BLItz sensor was loaded with ACIS peptide (0.25 μg/μL) followed by titration with different concentrations of ACE-2 enzyme starting from nM range.
This can prevent or inhibit the infection of a host cell by SARS-CoV2 virus.

[5] = system: SARS-CoV2 (SARS CoV-2 USA_WA1/2020) in VERO cells; assay: Cytopathic effect (agar monolayer invasion) test of supernatants of treated VERO cells; format: cell-based
[6] = system: SARS-CoV2 in VERO E6 cells; assay: dual immunostaining of ACIS peptide and S-glycoprotein in infected VERO cells; format: cell-based; details: 25 μM
Description: Further confirming the profound activity of KEPTIDE COVIDs in the attenuation of viral infection, a dual immunostaining analyses with ACIS peptide (green) and S-glycoprotein (red) was performed. DAPI staining was carried out to identify big nuclei of VERO cells. […] The result was further corroborated with a quantification study that clearly indicated a strong inhibition of viral load around ACIS-treated VERO cells (***p<0.0001) (FIG. 6B).
In order to evaluate the efficacy of the KEPTIDE COVID in suppressing the secondary or chronic infection of SARS-COV2, testing was performed by dual immunostaining procedure after six hours of viral infection. […] The effect was further confirmed with a quantitative analysis (FIG. 7B).
Double Immunocytochemistry analyses was performed where […] VERO Cells were plated per well in 8-well chamber slide. Cells were starved with serum-free DMEM media for 30 mins followed by the treatment with 25 μM FITC-labeled KEPTIDE COVID. After another 30 mins, unbound KEPTIDE COVIDs were aspirated and then added SARS-CoV2 at a dose of 1-2 PFU/cell. After 2 and 6 hours of virus treatment, viral cells were removed, VERO cells were fixed with 8% PFA and kept at 4° C. for overnight. […]

[7] = target: T1, ACE-2; assay: surface plasmon resonance (SPR); details: different concentrations of ACIS as analyte; hyperbolic binding curve

T1 sequence (Q9BYF1 18-805): as above

CC(C)[C@H](NC(=O)CNC(=O)[C@H](CC(N)=O)NC(=O)[C@@H](NC(=O)[C@@H]1CCCN1C(=O)[C@H](CCC(N)=O)NC(=O)[C@@H](N)Cc1ccccc1)[C@@H](C)O)C(=O)NCC(=O)N[C@@H](Cc1ccc(O)cc1)C(=O)N[C@@H](CCC(N)=O)C(=O)N1CCC[C@H]1C(=O)N[C@@H](Cc1ccc(O)cc1)C(=O)NCC(=O)N[C@@H](CCCCNC(=S)Nc1ccc2c(c1)C(=O)OC21c2ccc(O)cc2Oc2cc(O)ccc21)C(=O)O [KEPTIDE2]
concentration at which peptide binds with ACE-2 [1]: 6.376 nM | hillslope of the inhibition plot [2]: −2.4 | increase in protection, densitometric quantification of plaque assay [3]: three-fold increase in protection

CC(C)[C@H](NC(=O)CNC(=O)[C@H](CC(N)=O)NC(=O)[C@@H](NC(=O)[C@@H]1CCCN1C(=O)[C@H](CCC(N)=O)NC(=O)[C@@H](N)Cc1ccccc1)[C@@H](C)O)C(=O)NCC(=O)N[C@@H](Cc1ccc(O)cc1)C(=O)N[C@@H](CCC(N)=O)C(=O)N1CCC[C@H]1C(=O)N[C@@H](Cc1ccc(O)cc1)C(=O)NCC(=O)O [ACIS peptide, FQPTNGVGYQPYG]
Kd [4]: 115 nM | minimum concentration with dose-dependent binding ([4]; sensor loaded with ACIS 0.25 μg/μL, titrated with ACE-2): 13 nM | damage of agar monolayer (loss of CV staining) by viral supernatants of treated VERO cells [5]: significant damage in agar monolayer | inhibition of viral particles, secondary or chronic infection ([6]; 6 hours of infection): continued to repel viral particles significantly from VERO cells | inhibition of entry of viral particles, acute infection ([6]; two hours of SARS-CoV2 treatment (1-2 PFU)): substantially inhibit the entry of viral particles | interaction with ACE-2 enzyme (binding curve) [7]: strong interaction with ACE-2 enzyme
